From patent publication US20240360194A1, “New Peptides as Potent and Selective GIP Receptor Agonists” (Sanofi, priority 2021, published 2024)
Converted amounts (≈) assume the structure as drawn. Read-outs that look alike come from different tables or passages of the source. Numbered stars: 1 amine (or outer) side, 2 acyl side, 3 side chain; on linkers, the order of the positions; unused ones are H or OH. Square brackets hold non-standard residues; d marks the D form. Side chains are listed from the residue outwards. Peptide text beside a SMILES is read from it. * marks the point of attachment. C18 diacid = O=C(O)CCCCCCCCCCCCCCCCC(=O)*; γGlu = O=C(O)[C@H](CCC(=O)[*:2])N[*:1]; dIva = CC[C@@](C)(N)C(=O)O; AEEA = NCCOCCOCC(=O)O; Aib = CC(C)(N)C(=O)O

How the values were obtained:
[1] = target: T1, human GLP-1 receptor (hGLP-1R) (Homo sapiens, UniProt P43220); experiment: In vitro cellular cAMP assay for GLP-1 receptor efficacy (HEK-293 cell line over-expressing receptor); assay type: cell-based; conditions: HEK-293, 0.1% BSA
[2] = Chemical stability assessment (UHPLC-UV purity loss on storage in solution); assay type: physicochemical; conditions: Chemical stability buffer system A: 20 mM phosphate buffer pH 7.4; ~300 μM
Method: Purity of a peptide batch was determined through UHPLC/MS prior to chemical stability measurement. The target concentration was 300 μM pure compound. Solutions from solid samples were prepared in the following buffer systems with a concentration of ˜300 μM compound based on the previously determined % purity: • Chemical stability buffer system A) 20 mM phosphate buffer pH 7.4, • Chemical stability buffer system B) 8 mM phosphate buffer pH 7.4, 14 mg/ml propylene glycol, 5.5 mg/ml phenol • Chemical stability buffer system C) 100 mM phosphate buffer pH 7.4, 2.7 mg/ml m-cresol
Prepared solutions were filtered through […] pore size and filled into sterilized glass containers under laminar flow conditions.
Glass containers were stored for 28 days at 5 and 40° C. After this time, the samples were centrifuged for 15 min at 2500 RCF. Then 1.5 μl of the undiluted supernatant were analysed with UHPLC-UV.
The chemical stability was rated through the relative loss of purity calculated by the equation: […]
The purity is calculated as
The analytical methods used were Analytical UHPLC Method B or C.
Peptide samples were prepared in Chemical stability buffer system A or B and stability was assessed as described in Methods.

[3] = Solubility assessment (UHPLC-UV of supernatant, target 10 mg/ml); assay type: physicochemical; conditions: for Soluble amount: pH 7.4
Outline: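 Peptides at 10 mg/ml (purity-corrected) in 100 mM phosphate pH 7.4, optionally with 2.7 mg/ml m-cresol; gentle agitation 1 h, then 5° C. overnight (24 h). Supernatant after 15 min centrifugation at 2500 RCF quantified by UHPLC-UV, with sequence-based extinction coefficients.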

[4] = target: T1, human GLP-1 receptor (hGLP-1R); experiment: Binding assay, displacement of [125I]GLP-1 from HEK-293 membranes over-expressing GLP-1R (SPA); conditions: [125I]GLP-1 displacement
Outline: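 Membranes from HEK-293 cells over-expressing human GIPR or GLP-1R, isolated by homogenising, sonicating and ultracentrifuging at 100000×g into HEPES/EDTA/NaCl buffer with protease inhibitors, were used for binding.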

[5] = 100 mM phosphate buffer pH 7.4 (solubility buffer system A), pH 7.4, Solubility buffer system A: 100 mM phosphate buffer pH 7.4, read-out: Soluble amount
[6] = pH 7.4, Solubility buffer system C: 100 mM phosphate buffer pH 7.4, 2.7 mg/ml m-cresol, read-out: Soluble amount

T1 sequence (P43220 24-463): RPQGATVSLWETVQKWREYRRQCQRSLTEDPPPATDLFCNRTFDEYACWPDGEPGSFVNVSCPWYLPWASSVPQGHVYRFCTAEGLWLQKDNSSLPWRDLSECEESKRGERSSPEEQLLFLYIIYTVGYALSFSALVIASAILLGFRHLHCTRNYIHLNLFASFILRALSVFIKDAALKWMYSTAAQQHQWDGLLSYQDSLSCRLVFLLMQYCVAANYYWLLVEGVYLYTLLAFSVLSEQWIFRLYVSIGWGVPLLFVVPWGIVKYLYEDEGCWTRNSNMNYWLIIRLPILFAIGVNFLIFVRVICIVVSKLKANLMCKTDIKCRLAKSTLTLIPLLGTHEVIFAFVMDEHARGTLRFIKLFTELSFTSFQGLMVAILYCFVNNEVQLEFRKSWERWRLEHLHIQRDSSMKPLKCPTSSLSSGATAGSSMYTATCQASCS

| Compound | EC50 [1] [nM] | Relative purity loss over 28 days at 40° C. [2] [%] | solubility at 24 h ([3]; pH 7.4, Soluble amount) [µg/mL] | IC50 [4] [nM] | Soluble amount [3] [mg/mL] | solubility ([3]; pH 7.4, Soluble amount) [µg/mL] | solubility at 24 h [3, 5] [µg/mL] | solubility at 24 h [3, 6] [µg/mL] |
| --- | --- | --- | --- | --- | --- | --- | --- | --- |
| CC[C@H](C)[C@H](NC(=O)[C@H](CCCNC(=N)N)NC(=O)[C@H](CC(=O)O)NC(=O)[C@H](CC(C)C)NC(=O)C(C)(C)NC(=O)[C@@H](NC(=O)[C@H](CO)NC(=O)[C@H](CC(C)C)NC(=O)[C@H](CC(=O)O)NC(=O)[C@H](CO)NC(=O)[C@@H](NC(=O)[C@H](Cc1ccccc1)NC(=O)[C@@H](NC(=O)CNC(=O)[C@H](CCC(=O)O)NC(=O)C(C)(C)NC(=O)[C@@H](N)Cc1ccc(O)cc1)[C@@H](C)O)[C@@H](C)CC)[C@@H](C)CC)C(=O)N[C@@H](CCCCNC(=O)COCCOCCNC(=O)COCCOCCNC(=O)CC[C@H](NC(=O)CCCCCCCCCCCCCCCCC(=O)O)C(=O)O)C(=O)N[C@@H](CCC(N)=O)C(=O)NC(C)(C)C(=O)N[C@@H](CCC(=O)O)C(=O)N[C@@H](Cc1ccccc1)C(=O)N[C@H](C(=O)N[C@@H](CCC(=O)O)C(=O)N[C@@H](Cc1c[nH]c2ccccc12)C(=O)N[C@@H](CC(C)C)C(=O)N[C@@H](CC(C)C)C(=O)N[C@@H](C)C(=O)N[C@@H](CCC(N)=O)C(=O)NCC(=O)N1CCC[C@H]1C(=O)N[C@@H](CO)C(=O)N[C@@H](CO)C(=O)NCC(=O)N[C@@H](C)C(=O)N1CCC[C@H]1C(=O)N1CCC[C@H]1C(=O)N1CCC[C@H]1C(=O)N[C@@H](CO)C(N)=O)[C@@H](C)CC [SEQ ID NO: 37, H2N-Y-Aib-E-G-T-F-I-S-D-L-S-I-Aib-L-D-R-I-K[{AEEA}2-gGlu-C18OH]-Q-Aib-E-F-I-E-W-L-L-A-Q-G-P-S-S-G-A-P-P-P-S-NH2] (H-Y[Aib]EGTFISDLSI[Aib]LDRIK([AEEA-AEEA-γGlu-C18 diacid])Q[Aib]EFIEWLLAQGPSSGAPPPS-NH2) | > 10 | 5.3 | 8600 (≈ 1740 µM) | – | – | – | – | – |
| CC[C@H](C)[C@H](NC(=O)[C@H](Cc1ccccc1)NC(=O)[C@H](CCC(=O)O)NC(=O)[C@H](CCC(=O)O)NC(=O)[C@H](CCC(N)=O)NC(=O)[C@H](Cc1c[nH]cn1)NC(=O)[C@@H](NC(=O)[C@H](CCCNC(=N)N)NC(=O)[C@H](CC(=O)O)NC(=O)[C@H](CCCCNC(=O)COCCOCCNC(=O)COCCOCCNC(=O)CC[C@H](NC(=O)CCCCCCCCCCCCCCCCC(=O)O)C(=O)O)NC(=O)C(C)(C)NC(=O)[C@@H](NC(=O)[C@H](CO)NC(=O)[C@H](CC(C)C)NC(=O)[C@H](CC(=O)O)NC(=O)[C@H](CO)NC(=O)[C@@H](NC(=O)[C@@](C)(CC)NC(=O)[C@@H](NC(=O)CNC(=O)[C@H](CCC(=O)O)NC(=O)C(C)(C)NC(=O)[C@@H](N)Cc1ccc(O)cc1)[C@@H](C)O)[C@@H](C)CC)[C@@H](C)CC)[C@@H](C)CC)C(=O)N[C@@H](CCC(=O)O)C(=O)N[C@@H](Cc1c[nH]c2ccccc12)C(=O)N[C@@H](CC(C)C)C(=O)N[C@@H](CC(C)C)C(=O)N[C@@H](C)C(=O)N[C@@H](CCC(N)=O)C(=O)N[C@@H](CCCNC(=N)N)C(=O)NCC(N)=O [SEQ ID NO: 15, H2N-Y-Aib-E-G-T-Iva-I-S-D-L-S-I-Aib-K[{AEEA}2-gGlu-C18OH]-D-R-I-H-Q-E-E-F-I-E-W-L-L-A-Q-R-G-NH2] | > 10 | 6.5 | – | 495 | 8.5 | > 9500 | – | – |
| CC[C@H](C)[C@H](NC(=O)[C@H](CCCNC(=N)N)NC(=O)[C@H](CC(=O)O)NC(=O)[C@H](CCCCNC(=O)COCCOCCNC(=O)COCCOCCNC(=O)CC[C@H](NC(=O)CCCCCCCCCCCCCCCCC(=O)O)C(=O)O)NC(=O)C(C)(C)NC(=O)[C@@H](NC(=O)[C@H](CO)NC(=O)[C@H](CC(C)C)NC(=O)[C@H](CC(=O)O)NC(=O)[C@H](CO)NC(=O)[C@@H](NC(=O)[C@H](Cc1ccccc1)NC(=O)[C@@H](NC(=O)CNC(=O)[C@H](CCC(=O)O)NC(=O)C(C)(C)NC(=O)[C@@H](N)Cc1ccc(O)cc1)[C@@H](C)O)[C@@H](C)CC)[C@@H](C)CC)C(=O)N[C@@H](Cc1c[nH]cn1)C(=O)N[C@@H](CCC(N)=O)C(=O)NC(C)(C)C(=O)N[C@@H](CCC(=O)O)C(=O)N[C@@H](Cc1ccccc1)C(=O)N[C@H](C(=O)N[C@@H](CCC(=O)O)C(=O)N[C@@H](Cc1c[nH]c2ccccc12)C(=O)N[C@@H](CC(C)C)C(=O)N[C@@H](CC(C)C)C(=O)N[C@@H](C)C(=O)N[C@@H](CCC(N)=O)C(=O)N[C@@H](CCC(=O)O)C(=O)NCC(N)=O)[C@@H](C)CC [SEQ ID NO: 12, H2N-Y-Aib-E-G-T-F-I-S-D-L-S-I-Aib-K[{AEEA}2-gGlu-C18OH]-D-R-I-H-Q-Aib-E-F-I-E-W-L-L-A-Q-E-G-NH2] | > 10 | 7.4 | – | 133 | – | – | > 9500 | 7600 (≈ 1760 µM) |
| CC[C@H](C)[C@H](NC(=O)[C@H](Cc1ccccc1)NC(=O)[C@H](CCC(=O)O)NC(=O)[C@H](CCC(=O)O)NC(=O)[C@H](CCC(N)=O)NC(=O)[C@H](Cc1c[nH]cn1)NC(=O)[C@@H](NC(=O)[C@H](CCCNC(=N)N)NC(=O)[C@H](CC(=O)O)NC(=O)[C@H](CCCCNC(=O)COCCOCCNC(=O)COCCOCCNC(=O)CC[C@H](NC(=O)CCCCCCCCCCCCCCCCC(=O)O)C(=O)O)NC(=O)C(C)(C)NC(=O)[C@@H](NC(=O)[C@H](CO)NC(=O)[C@H](CC(C)C)NC(=O)[C@H](CC(=O)O)NC(=O)[C@H](CO)NC(=O)[C@@H](NC(=O)[C@H](Cc1ccccc1)NC(=O)[C@@H](NC(=O)CNC(=O)[C@H](CCC(=O)O)NC(=O)C(C)(C)NC(=O)[C@@H](N)Cc1ccc(O)cc1)[C@@H](C)O)[C@@H](C)CC)[C@@H](C)CC)[C@@H](C)CC)C(=O)N[C@@H](CCC(=O)O)C(=O)N[C@@H](Cc1c[nH]c2ccccc12)C(=O)N[C@@H](CC(C)C)C(=O)N[C@@H](CC(C)C)C(=O)N[C@@H](C)C(=O)N[C@@H](CCC(N)=O)C(=O)N[C@@H](CCCNC(=N)N)C(=O)NCC(N)=O [SEQ ID NO: 4, H2N-Y-Aib-E-G-T-F-I-S-D-L-S-I-Aib-K[{AEEA}2-gGlu-C18OH]-D-R-I-H-Q-E-E-F-I-E-W-L-L-A-Q-R-G-NH2] | > 1 | 5.1 | – | 308 | – | – | > 30000 | > 8700 |
| CC[C@H](C)[C@H](NC(=O)[C@H](CCCNC(=N)N)NC(=O)[C@H](CC(=O)O)NC(=O)[C@H](CCCCNC(=O)COCCOCCNC(=O)COCCOCCNC(=O)CC[C@H](NC(=O)CCCCCCCCCCCCCCCCC(=O)O)C(=O)O)NC(=O)C(C)(C)NC(=O)[C@@H](NC(=O)[C@H](CO)NC(=O)[C@H](CC(C)C)NC(=O)[C@H](CC(=O)O)NC(=O)[C@H](CO)NC(=O)[C@@H](NC(=O)[C@H](Cc1ccccc1)NC(=O)[C@@H](NC(=O)CNC(=O)[C@H](CCC(=O)O)NC(=O)C(C)(C)NC(=O)[C@@H](N)Cc1ccc(O)cc1)[C@@H](C)O)[C@@H](C)CC)[C@@H](C)CC)C(=O)N[C@@H](Cc1c[nH]cn1)C(=O)N[C@@H](CCC(N)=O)C(=O)NC(C)(C)C(=O)N[C@@H](CCC(=O)O)C(=O)N[C@@H](Cc1ccccc1)C(=O)N[C@H](C(=O)N[C@@H](CCC(=O)O)C(=O)N[C@@H](Cc1c[nH]c2ccccc12)C(=O)N[C@](C)(CC)C(=O)N[C@@H](CC(C)C)C(=O)N[C@@H](C)C(=O)N[C@@H](CCC(N)=O)C(=O)NCC(=O)N1CCC[C@H]1C(=O)N[C@@H](CO)C(=O)N[C@@H](CO)C(=O)NCC(=O)N[C@@H](C)C(=O)N1CCC[C@H]1C(=O)N1CCC[C@H]1C(=O)N1CCC[C@H]1C(=O)N[C@@H](CO)C(N)=O)[C@@H](C)CC [SEQ ID NO: 31, H2N-Y-Aib-E-G-T-F-I-S-D-L-S-I-Aib-K[{AEEA}2-gGlu-C18OH]-D-R-I-H-Q-Aib-E-F-I-E-W-Iva-L-A-Q-G-P-S-S-G-A-P-P-P-S-NH2] (H-Y[Aib]EGTFISDLSI[Aib]K([AEEA-AEEA-γGlu-C18 diacid])DRIHQ[Aib]EFIEW[dIva]LAQGPSSGAPPPS-NH2) | > 10 | 6.2 | – | – | 9.6 | > 10000 | – | – |
